Laboratory results: ChEMBL document CHEMBL1201862, “PubChem BioAssay data set” (2004)
Active and inactive are the calls of the source.

Columns and labels:
[1] = molecular target: G-protein coupled receptor 183 (Homo sapiens, UniProt P32249); assay: SAR confirmation of small molecule antagonists of the EBI2 receptor via a luminescent beta-arrestin assa.; assay type: functional
Protein Tat = Protein Tat (Human immunodeficiency virus type 1 group M subtype B (isolate HXB2)(HIV-1), UniProt P04608); assay type: functional;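 note: tat binding to TAR RNA read out by fluorescence polarization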
[2] = P. falciparum Dd2 growth inhibitors, dose response, SYBR Green, cherry-picked samples (AID 1159567); assay type: functional, cell-based
[3] = toxicity to human hepatoma HepG2 cells – cell-based, cherry-picked samples, cytotoxicity control, dose response (AID 1159577); assay type: functional
[4] = viability inhibitors of stage V gametocytes – luminescence, dose response (AID 1117278); assay type: functional, cell-based;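 note: gametocytes exposed to compound for 24 hours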
[5] = viability loss in human Jurkat cells – cell-based, luminescence, cytotoxicity control for P. falciparum gametocyte viability project, dose response (AID 1117277); assay type: functional;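 note: potency reflects loss of cellular ATP meaning fewer viable cells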
[6] = molecular target: T1, Low molecular weight phosphotyrosine protein phosphatase (Homo sapiens, UniProt P24666); assay: inhibition of LMPTP-A enzymatic activity – biochemical, OMFP substrate, fluorescence intensity, set 2, dose response (AID 743307); assay type: functional
T1 sequence (P24666 whole entry): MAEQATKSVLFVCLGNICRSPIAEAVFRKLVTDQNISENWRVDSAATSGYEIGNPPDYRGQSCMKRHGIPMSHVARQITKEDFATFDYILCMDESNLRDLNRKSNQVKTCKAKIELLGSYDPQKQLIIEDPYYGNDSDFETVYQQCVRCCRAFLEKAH

[7] = molecular target: T1, Low molecular weight phosphotyrosine protein phosphatase; assay: inhibition of human LMPTP enzyme activity – biochemical, absorbance, pNPP substrate, LMPTP-A isoform, set 2, orthogonal assay, dose response (AID 743308); assay type: functional
[8] = growth inhibition of yeast DHODH-expressing 3D7 parasites – SYBR Green, dry powder samples, dose response (AID 1159570); assay type: functional, cell-based;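 note: parasite growth measured after 72 hours of compound exposure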
[9] = Dd2 malaria parasite growth inhibition potency – SYBR Green, dry powder samples, dose response (AID 1159566); assay type: functional, cell-based;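 note: potency for growth inhibition with lower SYBR green DNA signal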
[10] = growth inhibition of PfATP4-mutant resistant parasites – NITD609-resistant line, SYBR Green, dry powder, dose response (AID 1159571); assay type: functional, cell-based;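 note: parasites synchronized at ring stage by sorbitol before testing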
[11] = molecular target: NAD-dependent protein deacylase sirtuin-5, mitochondrial (Homo sapiens, UniProt Q9NXA8); assay: sirtuin-5 deacylation blockers, concentration series – biochemical, fluorescence imaging, cherry-pick, set 5, dose response (AID 720591);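 note: desuccinylation of succinyl peptide AMC substrate read as fluorescence after trypsin release; potency of inhibitors that lower fluorescence and may act on trypsin instead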
Escherichia coli [12] = assay: microbe, parasite or virus in culture
Escherichia coli [13] = assay: microbe, parasite or virus in culture; remark: listed apart in the source
[14] = rise of 2N DNA cells, HeLa – IC50, dose response (AID 1117349); assay type: functional, cell-based
[15] = CellTiter-Glo luminescence survival assay, SW480 colon tumor line, concentration-response curve, half-maximal inhibitory concentration (AID 1117338); assay type: functional
[16] = RKO cell viability reduction, dose response, CellTiter-Glo luminescence (AID 1117322); assay type: functional
[17] = cytotoxicity toward HCT116 cells – cell-based, CellTiter-Glo luminescence, IC50, dose response (AID 1117332); assay type: functional; conditions: HCT-116
[18] = SNU-C1 cell viability reduction, dose response, CellTiter-Glo luminescence (AID 1117323); assay type: functional, cell-based
[19] = cytotoxicity toward Colo320 cells – cell-based, CellTiter-Glo luminescence, IC50, dose response (AID 1117334); assay type: functional; conditions: COLO 320
[20] = rise of 4N DNA cells, HeLa – IC50, dose response (AID 1117351); assay type: functional, cell-based
[21] = cytotoxicity toward HT-29 cells – cell-based, CellTiter-Glo luminescence, IC50, dose response (AID 1117330); assay type: functional
[22] = Reduced DLD-1 viability, concentration-response, CellTiter-Glo luminescence (AID 1117352); assay type: functional
[23] = molecular target: T2, Carboxy-terminal domain RNA polymerase II polypeptide A small phosphatase 1 (Homo sapiens, UniProt Q9GZU7); assay: CTDSP1 inhibitors, concentration-response, biochemical, absorbance readout, ultra-high-throughput screen actives (AID 540297); assay type: functional
T2 sequence (Q9GZU7 whole entry): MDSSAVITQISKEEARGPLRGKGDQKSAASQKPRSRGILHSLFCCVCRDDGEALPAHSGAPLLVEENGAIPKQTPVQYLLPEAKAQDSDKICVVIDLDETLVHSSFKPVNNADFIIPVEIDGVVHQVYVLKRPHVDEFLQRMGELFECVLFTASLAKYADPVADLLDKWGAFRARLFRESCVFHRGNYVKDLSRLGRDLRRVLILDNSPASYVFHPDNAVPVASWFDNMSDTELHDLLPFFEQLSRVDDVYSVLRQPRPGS

[24] = molecular target: T3, Small ubiquitin-related modifier 1 (Homo sapiens, UniProt P63165); assay: SUMO1 protein interaction blockers, potency – biochemical, fluorescence polarization, uHTS hits, dose response (AID 624382); assay type: functional; conditions: read-out: IC50_Mean
[25] = molecular target: T4, Probable nicotinate-nucleotide adenylyltransferase (Staphylococcus aureus (strain N315), UniProt P65502); assay type: functional, Staphylococcus aureus subsp. aureus N315;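 for IC50 Mean: confirmatory dose-response retesting of NadD inhibitor hits first found in an ultra-high-throughput screen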
[26] = molecular target: T4, Probable nicotinate-nucleotide adenylyltransferase; assay type: functional, Staphylococcus aureus subsp. aureus N315; conditions: read-out: IC50_Mean
[27] = molecular target: T3, Small ubiquitin-related modifier 1; assay: SUMO1 protein-protein binding blockers, potency – biochemical, FRET, dose response (AID 624383); assay type: functional; conditions: read-out: IC50_Mean
[28] = viability loss in THP-1 monocytes – THP-1 cells, cytotoxicity control for Vif-APOBEC3G degradation inhibitor project, dose response (AID 1117359); assay type: functional; conditions: THP-1
[29] = molecular target: T5, RNA-binding protein pos-1 (Caenorhabditis elegans, UniProt G5EF15); assay: disruptors of C. elegans POS-1 RNA interaction – biochemical, fluorescence polarization, dose response (AID 1964);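 note: purified POS-1 fused to maltose binding protein made in E. coli; potency of compounds blocking POS-1 binding to fluorescent RNA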
T5 sequence (G5EF15 whole entry): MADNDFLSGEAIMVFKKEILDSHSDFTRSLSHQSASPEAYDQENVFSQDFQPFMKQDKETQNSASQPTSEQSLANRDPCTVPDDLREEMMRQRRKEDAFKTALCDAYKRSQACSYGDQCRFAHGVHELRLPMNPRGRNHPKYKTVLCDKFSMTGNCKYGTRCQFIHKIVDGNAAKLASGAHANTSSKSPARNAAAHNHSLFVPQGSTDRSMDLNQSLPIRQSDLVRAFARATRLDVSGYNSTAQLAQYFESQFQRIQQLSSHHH

[30] = molecular target: T6, Zinc finger protein mex-5 (Caenorhabditis elegans, UniProt Q9XUB2); assay: potency of MEX-5 RNA-binding blockers – biochemical, C. elegans, fluorescence polarization, dose response (AID 1960)
T6 sequence (Q9XUB2 whole entry): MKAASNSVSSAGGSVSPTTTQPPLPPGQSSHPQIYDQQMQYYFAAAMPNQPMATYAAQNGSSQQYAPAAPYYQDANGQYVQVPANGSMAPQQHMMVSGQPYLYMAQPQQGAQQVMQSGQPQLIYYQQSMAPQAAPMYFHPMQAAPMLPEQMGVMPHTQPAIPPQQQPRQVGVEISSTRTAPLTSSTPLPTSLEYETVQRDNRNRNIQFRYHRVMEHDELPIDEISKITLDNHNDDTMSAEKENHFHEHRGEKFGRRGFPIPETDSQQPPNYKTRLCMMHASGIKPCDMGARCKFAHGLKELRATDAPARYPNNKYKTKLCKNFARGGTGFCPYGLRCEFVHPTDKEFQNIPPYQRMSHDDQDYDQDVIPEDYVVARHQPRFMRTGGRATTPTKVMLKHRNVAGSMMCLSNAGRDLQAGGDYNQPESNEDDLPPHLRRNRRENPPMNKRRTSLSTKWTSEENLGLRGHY

Estrogen receptor = molecular target: T7, Estrogen receptor (Homo sapiens, UniProt P03372); assay: ERα coactivator recruitment enhancers – biochemical, TR-FRET, ERα LBD, dose response (AID 737)
T7 sequence (P03372 whole entry): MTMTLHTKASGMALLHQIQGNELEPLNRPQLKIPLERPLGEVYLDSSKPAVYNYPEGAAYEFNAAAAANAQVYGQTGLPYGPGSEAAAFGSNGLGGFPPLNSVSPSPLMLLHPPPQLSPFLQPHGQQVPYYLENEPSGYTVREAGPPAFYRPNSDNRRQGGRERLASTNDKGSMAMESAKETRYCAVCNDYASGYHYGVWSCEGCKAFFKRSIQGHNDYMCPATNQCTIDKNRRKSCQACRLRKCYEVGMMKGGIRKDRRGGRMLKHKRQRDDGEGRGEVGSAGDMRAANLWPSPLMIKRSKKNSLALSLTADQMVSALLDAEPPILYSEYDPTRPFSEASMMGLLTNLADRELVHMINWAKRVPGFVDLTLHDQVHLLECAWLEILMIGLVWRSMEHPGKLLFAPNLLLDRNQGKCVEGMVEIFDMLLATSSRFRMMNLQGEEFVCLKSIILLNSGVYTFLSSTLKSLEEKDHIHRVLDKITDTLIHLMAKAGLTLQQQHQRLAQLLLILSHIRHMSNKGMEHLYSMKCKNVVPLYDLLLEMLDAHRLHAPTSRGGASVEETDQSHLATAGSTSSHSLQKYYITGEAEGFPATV

[31] = molecular target: T8, Oxysterols receptor LXR-beta (Homo sapiens, UniProt P55055); assay type: functional, cell-based;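 note: Cell-based luminescence dose-response assay of agonist activity at LXR, run as a confirmatory counterscreen to a daf-12 agonist screen; HEK293 cells with Gal4-LXR fusion and GAL4-driven luciferase reporter; agonist potency from rising luciferase signal of a Gal4-LXR reporter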
T8 sequence (P55055 whole entry): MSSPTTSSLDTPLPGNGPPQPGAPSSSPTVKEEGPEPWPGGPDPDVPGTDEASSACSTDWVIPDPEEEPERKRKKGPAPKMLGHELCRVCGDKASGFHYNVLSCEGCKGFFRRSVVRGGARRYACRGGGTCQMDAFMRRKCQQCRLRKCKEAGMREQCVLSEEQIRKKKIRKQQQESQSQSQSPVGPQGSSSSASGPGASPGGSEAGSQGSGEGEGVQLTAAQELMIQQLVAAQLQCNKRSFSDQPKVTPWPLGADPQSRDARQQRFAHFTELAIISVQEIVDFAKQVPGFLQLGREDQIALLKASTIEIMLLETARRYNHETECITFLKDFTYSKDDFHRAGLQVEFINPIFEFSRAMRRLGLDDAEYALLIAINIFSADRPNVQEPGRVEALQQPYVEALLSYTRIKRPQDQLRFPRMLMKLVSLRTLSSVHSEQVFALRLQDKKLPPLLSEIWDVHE

NAD-dependent protein deacylase sirtuin-5, mitochondrial, sequence (Q9NXA8 whole entry): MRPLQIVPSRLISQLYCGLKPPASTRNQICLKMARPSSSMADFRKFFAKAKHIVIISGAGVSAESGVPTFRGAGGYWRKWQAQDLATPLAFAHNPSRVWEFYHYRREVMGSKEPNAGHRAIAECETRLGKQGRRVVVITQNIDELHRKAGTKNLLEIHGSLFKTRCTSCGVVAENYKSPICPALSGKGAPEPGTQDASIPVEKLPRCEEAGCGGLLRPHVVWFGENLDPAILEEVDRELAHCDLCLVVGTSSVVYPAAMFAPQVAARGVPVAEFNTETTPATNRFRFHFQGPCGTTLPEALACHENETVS
T3 sequence (P63165 whole entry): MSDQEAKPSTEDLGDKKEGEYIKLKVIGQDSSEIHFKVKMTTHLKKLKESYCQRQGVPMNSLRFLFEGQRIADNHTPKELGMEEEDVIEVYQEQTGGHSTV
T4 sequence (P65502 whole entry): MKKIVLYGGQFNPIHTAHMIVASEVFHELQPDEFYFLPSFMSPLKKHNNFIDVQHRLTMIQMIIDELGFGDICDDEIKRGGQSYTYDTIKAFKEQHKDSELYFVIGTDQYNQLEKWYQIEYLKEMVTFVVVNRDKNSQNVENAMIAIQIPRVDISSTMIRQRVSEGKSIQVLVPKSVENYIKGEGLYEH
G-protein coupled receptor 183, sequence (P32249 whole entry): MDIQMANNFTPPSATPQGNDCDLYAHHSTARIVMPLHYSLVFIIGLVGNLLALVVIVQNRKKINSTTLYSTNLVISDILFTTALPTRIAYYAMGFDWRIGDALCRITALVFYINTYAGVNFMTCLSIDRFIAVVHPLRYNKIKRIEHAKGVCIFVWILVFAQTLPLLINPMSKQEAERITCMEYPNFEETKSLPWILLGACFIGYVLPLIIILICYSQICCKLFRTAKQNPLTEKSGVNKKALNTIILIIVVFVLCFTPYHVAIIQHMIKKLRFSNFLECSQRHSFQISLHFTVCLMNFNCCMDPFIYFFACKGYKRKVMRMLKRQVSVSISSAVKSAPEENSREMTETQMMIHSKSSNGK
Protein Tat, sequence (P04608 whole entry): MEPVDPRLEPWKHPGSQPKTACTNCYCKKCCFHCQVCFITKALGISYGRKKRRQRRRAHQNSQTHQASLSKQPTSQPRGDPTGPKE

O=C(/C=C/c1ccc(Br)cc1F)N1CCN(S(=O)(=O)c2ccc(Br)cc2)CC1
IC50 [1]: 0.0655 µM (active)

COc1ccc(CCNC(=O)CN2CCCc3ccccc32)cc1OC
IC50 (Protein Tat): > 100 µM (active)

CCc1nc(N2[C@H](C#N)[C@H](c3ccccc3-c3ccccc3F)[C@@H]2CO)sc1C
AC50 [2]: 8.71 µM (active)
AC50 [3]: > 39 µM (inactive)

Fc1cccc(-c2ccc([C@@H]3[C@@H]4CN(Cc5cccnc5)C[C@H]3N4)cc2)c1
AC50 [2]: 0.348 µM (active)
AC50 [3]: 13 µM (active)

CC(C)(C)c1cccc(OCCCSc2ncccn2)c1
IC50 [4]: > 109 µM (inactive)
IC50 [5]: > 83.3 µM (inactive)

O=C(/C=C/c1ccc(Br)cc1)N1CCN(Cc2ccc(F)cc2C(F)(F)F)CC1
IC50 [1]: 0.00818 µM (active)

c1ccc(-c2cc(OCCCN3CCCCC3)c3ccccc3n2)cc1
IC50 [6]: 11.5 µM (active)
IC50 [7]: 19 µM (active)

Cc1ccc2nc(-c3ccccc3)c(-c3ccccc3)nc2c1
IC50 [4]: > 109 µM (inactive)
IC50 [5]: > 83.3 µM (inactive)

C[C@@H]1CN([C@@H](C)CO)C(=O)Cc2cc(NC(=O)Nc3ccc4c(c3)OCO4)ccc2O[C@@H]1CN(C)CC1CC1
AC50 [8]: 4.73 µM (active)
AC50 [2]: 2.37 µM (active)
AC50 [9]: 2.02 µM (active)
AC50 [10]: 2.76 µM (active)

C=C1c2cccc(O)c2C(=O)C2C(=O)[C@]3(O)C(=O)C(C(N)=O)C(=O)[C@@H](N(C)C)[C@@H]3[C@@H](O)[C@H]12 (some centres undefined)
AC50 [11]: 12.7 µM (active)
AC50 (Escherichia coli [12]): 31.7 µM (active)
AC50 (Escherichia coli [13]): 2.19 µM (active)

COc1cc2nc(-c3ccccc3)cc(NCCCN3CCCCC3)c2cc1OC
IC50 [6]: > 80 µM (inactive)
IC50 [7]: > 80 µM (inactive)

COc1ccc(-c2ccc3cc(C(=O)O)ccc3c2)cc1C12CC3CC(CC(C3)C1)C2
IC50 [14]: > 10 µM (inactive)
IC50 [15]: 0.405 µM (active)
IC50 [16]: 0.444 µM (active)
IC50 [17]: 0.59 µM (active)
IC50 [18]: 1.78 µM (active)
IC50 [19]: 0.787 µM (active)
IC50 [20]: > 10 µM (inactive)
IC50 [21]: 1.12 µM (active)
IC50 [22]: 0.597 µM (active)

O=C(COC(=O)c1c2c(nc3ccccc13)/C(=C\c1ccco1)CC2)NC1CCCC1
IC50 [23]: 2.49 µM (active)
IC50 [24]: > 66.6 µM (inactive)
IC50 [25]: 8.49 µM (active)
IC50 [26]: 16.9 µM (active)
IC50 [27]: 10.4 µM (active)
IC50 (Protein Tat): > 100 µM (active)
CC50 [28]: > 40 µM (active)

Cc1ccc2ccc(C3C(=O)c4ccccc4C3=O)nc2c1
EC50 [29]: > 300 µM (not active)
EC50 [30]: 48.4 µM (active)
EC50 (Estrogen receptor): 13.2 µM (not active)
EC50 [31]: > 67.6 µM (inactive)
EC50 (cells): > 67.6 µM (inactive)

COC(=O)c1ccc2nc(-c3ccc(OC)c(OC)c3)c(Cc3ccccc3C(F)(F)F)n2c1
AC50 [11]: > 30 µM (inactive)
